# *1 amine or outer side, *2 acyl side, *3 side chain or, on linkers, in order; H or OH if unused. Where a SMILES comes first, the peptide text is derived from it. Bridges are numbered along the chain shown (N, C = ends). [ ]: non-standard residue; d: D form. The star is where a group is joined. hTyr(3S-OH,4S-OH,3'-OSO3H) = N[C@H](C(=O)O)[C@H](O)[C@@H](O)c1ccc(O)c(OS(=O)(=O)O)c1; Orn(4R-OH,5R-OH) = O=C([C@H](C[C@@H](O)[C@@H](O)N[*:3])N[*:1])[*:2]; Pro(3S-OH,4S-Me) = C[C@H]1CN[C@H](C(=O)O)[C@H]1O; X1 = CCCCCOc1ccc(-c2cc(-c3ccc(C(=O)*)cc3)no2)cc1; Gln(3R-OH) = NC(=O)C[C@@H](O)[C@H](N)C(=O)O; Hyp = O=C(O)[C@@H]1C[C@@H](O)CN1
# Columns and labels:
# [1] = tested on: Candida tropicalis; experiment: Inhibition of chitin synthase extracted from Candida tropicalis ATCC 750 using UDP-GlcNAc as substrate assessed as inhibition rate at 300 ug/ml by TMB based microplate analyzer relative to control; conditions: dose 300.0 µg/ml
# [2] = tested on: Candida albicans; experiment: Antifungal activity against Candida albicans ATCC 76615 assessed as inhibition of growth incubated for 24 hrs by two-fold serial dilution method; assay type: functional
# [3] = tested on: Aspergillus flavus; experiment: Antifungal activity against Aspergillus flavus ATCC 16870 assessed as inhibition of growth incubated for 24 hrs by two-fold serial dilution method; assay type: functional
# [4] = tested on: Aspergillus fumigatus; experiment: Antifungal activity against Aspergillus fumigatus GIMCC 3.19 assessed as inhibition of growth incubated for 24 hrs by two-fold serial dilution method; assay type: functional
# [5] = tested on: Cryptococcus neoformans; experiment: Antifungal activity against Cryptococcus neoformans ATCC 32719 assessed as inhibition of growth incubated for 24 hrs by two-fold serial dilution method; assay type: functional
# [6] = tested on: Candida albicans; experiment: Antifungal activity against micafungin-resistant Candida albicans ATCC 76615 assessed as inhibition of fungal growth incubated for 24 to 72 hrs; assay type: functional; conditions: time 24-72 hrs
# [7] = Inhibition of chitin synthase extracted from Candida tropicalis ATCC 750 using UDP-GlcNAc as substrate assessed as inhibition rate by TMB based microplate analyzer relative to control
# [8] = tested on: Candida albicans; experiment: Antifungal activity against fluconazole-resistant Candida albicans ATCC 76615 assessed as inhibition of fungal growth incubated for 24 to 72 hrs; assay type: functional; conditions: time 24-72 hrs
# [9] = tested on: Aspergillus flavus; experiment: Antifungal activity against fluconazole-resistant Aspergillus flavus ATCC 16870 assessed as inhibition of fungal growth incubated for 24 to 72 hrs; assay type: functional; conditions: time 24-72 hrs
# [10] = tested on: Aspergillus fumigatus; experiment: Antifungal activity against fluconazole-resistant Aspergillus fumigatus GIMCC 3.19 assessed as inhibition of fungal growth incubated for 24 to 72 hrs; assay type: functional; conditions: time 24-72 hrs
# [11] = tested on: Cryptococcus neoformans; experiment: Antifungal activity against fluconazole-resistant Cryptococcus neoformans ATCC 32719 assessed as inhibition of fungal growth incubated for 24 to 72 hrs; assay type: functional; conditions: time 24-72 hrs
# [12] = tested on: Candida albicans; experiment: Antifungal activity against Candida albicans ATCC 76615 incubated for 24 hrs by half broth dilution based checkerboard method; assay type: functional
# [13] = tested on: Aspergillus flavus; experiment: Antifungal activity against Aspergillus flavus ATCC 16870 incubated for 24 hrs by half broth dilution based checkerboard method; assay type: functional
# [14] = tested on: Aspergillus fumigatus; experiment: Antifungal activity against Aspergillus fumigatus GIMCC 3.19 incubated for 24 hrs by half broth dilution based checkerboard method; assay type: functional
# [15] = tested on: Cryptococcus neoformans; experiment: Antifungal activity against Cryptococcus neoformans ATCC 32719 incubated for 24 hrs by half broth dilution based checkerboard method; assay type: functional
Compound,inhibition [1],MIC [2],MIC [3],MIC [4],MIC [5],MIC [6],IC50 [7],MIC [8],MIC [9],MIC [10],MIC [11],MIC [12],MIC [13],MIC [14],MIC [15]
CCCCNC(=O)/C=C/C(=O)Nc1ccc2c(c1)NC(=O)C1(CCNC1=O)C2 (racemic),35.7%,128 µg/mL,64 µg/mL,256 µg/mL,128 µg/mL,,,,,,,,,,
O=C(/C=C/C(=O)Nc1ccc2c(c1)NC(=O)C1(CCNC1=O)C2)NCc1ccccc1 (racemic),49.5%,32 µg/mL,16 µg/mL,64 µg/mL,16 µg/mL,,,,,,,,,,
CCCNC(=O)C1CCN(CC(=O)Nc2ccc3c(c2)NC(=O)C2(CCNC2=O)C3)CC1 (racemic),22.5%,128 µg/mL,128 µg/mL,256 µg/mL,512 µg/mL,,,,,,,,,,
CCCCN(CCCC)C(=O)/C=C/C(=O)Nc1ccc2c(c1)NC(=O)C1(CCNC1=O)C2 (racemic),28.2%,256 µg/mL,256 µg/mL,256 µg/mL,128 µg/mL,,,,,,,,,,
CC(C)NC(=O)/C=C/C(=O)Nc1ccc2c(c1)NC(=O)C1(CCNC1=O)C2 (racemic),34.6%,128 µg/mL,256 µg/mL,64 µg/mL,128 µg/mL,,,,,,,,,,
"CCCCCOc1ccc(-c2cc(-c3ccc(C(=O)N[C@H]4C[C@@H](O)[C@@H](O)NC(=O)[C@@H]5[C@@H](O)[C@@H](C)CN5C(=O)[C@H]([C@H](O)CC(N)=O)NC(=O)[C@H]([C@H](O)[C@@H](O)c5ccc(O)c(OS(=O)(=O)O)c5)NC(=O)[C@@H]5C[C@@H](O)CN5C(=O)[C@H]([C@@H](C)O)NC4=O)cc3)no2)cc1 [MICAFUNGIN] (X1-[Orn(4R-OH,5R-OH)]T[Hyp][hTyr(3S-OH,4S-OH,3'-OSO3H)][Gln(3R-OH)][Pro(3S-OH,4S-Me)]; lactam 1-C)",,,,,,256 µg/mL,,,,,,,,,
O=C(/C=C/C(=O)Nc1nccs1)Nc1ccc2c(c1)NC(=O)C1(CCNC1=O)C2 (racemic),55.8%,64 µg/mL,64 µg/mL,32 µg/mL,32 µg/mL,,441 µM,,,,,,,,
CCCN(CCC)C(=O)/C=C/C(=O)Nc1ccc2c(c1)NC(=O)C1(CCNC1=O)C2 (racemic),26.3%,128 µg/mL,128 µg/mL,256 µg/mL,128 µg/mL,,,,,,,,,,
O=C(CN1CCC(C(=O)Nc2nccs2)CC1)Nc1ccc2c(c1)NC(=O)C1(CCNC1=O)C2 (racemic),73.9%,8 µg/mL,32 µg/mL,256 µg/mL,512 µg/mL,,157 µM,,,,,,,,
CCCCCCNC(=O)C1CCN(CC(=O)Nc2ccc3c(c2)NC(=O)C2(CCNC2=O)C3)CC1 (racemic),24%,128 µg/mL,256 µg/mL,128 µg/mL,256 µg/mL,,,,,,,,,,
O=C(/C=C/C(=O)Nc1ccc2c(c1)NC(=O)C1(CCNC1=O)C2)Nc1ccc(F)cc1 (racemic),46.8%,128 µg/mL,32 µg/mL,64 µg/mL,32 µg/mL,,,,,,,,,,
COc1ccccc1NC(=O)C1CCN(CC(=O)Nc2ccc3c(c2)NC(=O)C2(CCNC2=O)C3)CC1 (racemic),39.7%,64 µg/mL,32 µg/mL,128 µg/mL,32 µg/mL,,,,,,,,,,
O=C(/C=C/C(=O)Nc1ccc2c(c1)NC(=O)C1(CCNC1=O)C2)Nc1ccc(Cl)cc1 (racemic),56.3%,32 µg/mL,32 µg/mL,32 µg/mL,64 µg/mL,,496 µM,,,,,,,,
O=C(CN1CCC(C(=O)Nc2ccc(Cl)cc2)CC1)Nc1ccc2c(c1)NC(=O)C1(CCNC1=O)C2 (racemic),41.3%,64 µg/mL,16 µg/mL,16 µg/mL,32 µg/mL,,166 µM,,,,,,,,
COc1ccc(NC(=O)/C=C/C(=O)Nc2ccc3c(c2)NC(=O)C2(CCNC2=O)C3)cc1 (racemic),49.3%,64 µg/mL,32 µg/mL,64 µg/mL,32 µg/mL,,,,,,,,,,
O=C(CN1CCC(C(=O)Nc2ccc(F)cc2)CC1)Nc1ccc2c(c1)NC(=O)C1(CCNC1=O)C2 (racemic),79.7%,128 µg/mL,32 µg/mL,64 µg/mL,128 µg/mL,,,,,,,,,,
O=C(/C=C/C(=O)Nc1ccccc1Br)Nc1ccc2c(c1)NC(=O)C1(CCNC1=O)C2 (racemic),66.2%,32 µg/mL,32 µg/mL,32 µg/mL,16 µg/mL,,266 µM,,,,,,,,
CCCCCNC(=O)/C=C/C(=O)Nc1ccc2c(c1)NC(=O)C1(CCNC1=O)C2 (racemic),37.9%,256 µg/mL,128 µg/mL,128 µg/mL,256 µg/mL,,,,,,,,,,
OC(Cn1cncn1)(Cn1cncn1)c1ccc(F)cc1F [FLUCONAZOLE],,8 µg/mL,4 µg/mL,4 µg/mL,8 µg/mL,,,256 µg/mL,256 µg/mL,256 µg/mL,256 µg/mL,8 µg/mL,4 µg/mL,4 µg/mL,8 µg/mL
CCCNC(=O)/C=C/C(=O)Nc1ccc2c(c1)NC(=O)C1(CCNC1=O)C2 (racemic),36.9%,128 µg/mL,128 µg/mL,64 µg/mL,128 µg/mL,,,,,,,,,,
O=C(/C=C/C(=O)Nc1ccc2c(c1)NC(=O)C1(CCNC1=O)C2)Nc1ccccc1 (racemic),39.6%,64 µg/mL,64 µg/mL,32 µg/mL,128 µg/mL,,,,,,,,,,
O=C(CN1CCC(C(=O)Nc2ccccc2)CC1)Nc1ccc2c(c1)NC(=O)C1(CCNC1=O)C2 (racemic),35.8%,64 µg/mL,32 µg/mL,128 µg/mL,64 µg/mL,,,,,,,,,,
CCCCNC(=O)C1CCN(CC(=O)Nc2ccc3c(c2)NC(=O)C2(CCNC2=O)C3)CC1 (racemic),18.2%,256 µg/mL,64 µg/mL,256 µg/mL,128 µg/mL,,,,,,,,,,
O=C(CN1CCC(C(=O)Nc2nc3ccccc3s2)CC1)Nc1ccc2c(c1)NC(=O)C1(CCNC1=O)C2 (racemic),57.7%,64 µg/mL,32 µg/mL,32 µg/mL,16 µg/mL,,379 µM,,,,,,,,
Cc1ccc(NC(=O)C2CCN(CC(=O)Nc3ccc4c(c3)NC(=O)C3(CCNC3=O)C4)CC2)cc1C (racemic),42.3%,32 µg/mL,32 µg/mL,64 µg/mL,64 µg/mL,,,,,,,,,,
Cc1ccc(NC(=O)C2CCN(CC(=O)Nc3ccc4c(c3)NC(=O)C3(CCNC3=O)C4)CC2)cc1 (racemic),45.1%,32 µg/mL,64 µg/mL,128 µg/mL,32 µg/mL,,286 µM,,,,,,,,
O=C(/C=C/C(=O)Nc1ccc2c(c1)NC(=O)C1(CCNC1=O)C2)Nc1ccc(F)c(Cl)c1 (racemic),48.7%,32 µg/mL,64 µg/mL,128 µg/mL,32 µg/mL,,,,,,,,,,
COc1ccc(NC(=O)C2CCN(CC(=O)Nc3ccc4c(c3)NC(=O)C3(CCNC3=O)C4)CC2)cc1 (racemic),75.9%,128 µg/mL,32 µg/mL,64 µg/mL,64 µg/mL,,,,,,,,,,
